The record followed here is patent US10689367B2, “Triazole pyridyl compounds as agonists of the APJ receptor” (AMGEN INC., priority 2016, dated 2020).

The EC50 is the concentration that produces a half-maximal response.

Chain of human APJ receptor (P35414 whole entry): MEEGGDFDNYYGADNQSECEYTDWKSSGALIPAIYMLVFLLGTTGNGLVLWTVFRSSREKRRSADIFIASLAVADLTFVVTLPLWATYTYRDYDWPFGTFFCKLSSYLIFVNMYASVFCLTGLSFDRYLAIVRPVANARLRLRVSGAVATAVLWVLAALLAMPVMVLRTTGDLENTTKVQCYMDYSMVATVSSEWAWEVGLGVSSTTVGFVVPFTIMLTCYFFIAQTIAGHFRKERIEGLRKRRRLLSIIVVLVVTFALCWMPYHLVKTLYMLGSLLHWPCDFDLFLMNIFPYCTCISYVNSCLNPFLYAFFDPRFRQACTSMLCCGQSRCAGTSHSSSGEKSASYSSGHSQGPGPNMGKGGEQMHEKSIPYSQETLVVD

In the experiment the target is human APJ receptor (Homo sapiens (Human), UniProt P35414). Description: [35S]GTPγS binding assay on membranes from CHO cells stably expressing human APJ receptor. The format is biochemical. As to conditions: membranes of CHO cells stably expressing human APJ receptor, read-out: Activity hAPJ SPA EC50 IP. Put shortly:
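Agonist EC50 values come from non-linear regression of mean data from several independent runs. Membranes of CHO cells stably expressing human APJ were incubated 90 min at room temperature with [35S]GTPγS in buffer with optimized GDP, MgCl2 and NaCl, then read on a microplate imager.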
(Binding of GTPγS marks nucleotide exchange on a G protein.)
For `COc1cccc(-c2nnc(NS(=O)(=O)[C@@H](C)[C@H](OC)c3ncc(Cl)cn3)n2[C@H](C)[C@@H]2CCCCO2)n1` (racemic) [Example 319.0], the EC50 is 0.44 nM.

As for `CCn1c(NS(=O)(=O)[C@@H](C)[C@H](OC)c2ncc(Cl)cn2)nnc1-c1ccccn1` [Example 131.0], the EC50 amounted to 25 nM.

For the compound `COCCn1c(NS(=O)(=O)[C@@H](C)[C@H](C)c2ncc(OC)cn2)nnc1-c1ccccn1` [Example 21.0, (2S,3R)-N-(4-(2-methoxyethyl)-5-(2-pyridinyl)-4H-1,2,4-triazol-3-yl)-3-(5-methoxy-2-pyrimidinyl)-2-butanesulfonamide], the EC50 is 430 nM.

Consider `COc1cccc(-c2nnc(NS(=O)(=O)[C@@H](C)[C@H](OC)c3ncc(Cl)cn3)n2CCC(N)=O)n1` [Example 45.0], for which the EC50 came to 60 nM.

With `COc1cccc(-c2nnc(NS(=O)(=O)[C@@H](C)[C@H](OC)c3cnc(C)cn3)n2Cc2ccno2)n1` [Example 206.0, (1R,2S)-1-methoxy-N-(5-(6-methoxy-2-pyridinyl)-4-(1,2-oxazol-5-ylmethyl)-4H-1,2,4-triazol-3-yl)-1-(5-methyl-2-pyrazinyl)-2-propanesulfonamide], the EC50 was 210 nM.

Take `COc1cnc([C@@H](OC)[C@H](C)S(=O)(=O)Nc2nnc(-c3cccc(OC)n3)n2[C@H]2CC23CC3)cn1` (single isomer, unassigned) [Example 159.0, (1R,2S)-1-methoxy-1-(5-methoxypyrazin-2-yl)-N-(5-(6-methoxypyridin-2-yl)-4-((S)-spiro[2.2]pentan-1-yl)-4H-1,2,4-triazol-3-yl)propane-2-sulfonamide or (1R,2S)-1-methoxy-1-(5-methoxypyrazin-2-yl)-N-(5-(6-methoxypyridin-2-yl)-4-((R)-spiro[2.2]pentan-1-yl)-4H-1,2,4-triazol-3-yl)propane-2-sulfonamide]: the EC50 was found to be 550 nM.

`[2H]C1([2H])C(n2c(NS(=O)(=O)[C@@H](C)[C@@H](OC(C)C)c3ncc(C)cn3)nnc2-c2cccc(OC)n2)C1([2H])[2H]` [Example 164.0, (1S,2S)—N-(4-(Cyclopropyl-2,2,3,3-d4)-5-(6-methoxypyridin-2-yl)-4H-1,2,4-triazol-3-yl)-1-isopropoxy-1-(5-methylpyrimidin-2-yl)propane-2-sulfonamide]: the EC50 worked out at 11 nM.

As to `COc1cccc(-c2nnc(NS(=O)(=O)[C@@H](C)[C@@H](OC(C)C)c3ncc(C)cn3)n2[C@H](c2conc2C)C2CC2)n1` (single isomer, unassigned) [Example 230.0, (1S,2S)-N-(4-((S)-cyclopropyl(3-methyl-1,2-oxazol-4-yl)methyl)-5-(6-methoxy-2-pyridinyl)-4H-1,2,4-triazol-3-yl)-1-(5-methyl-2-pyrimidinyl)-1-(2-propanyloxy)-2-propanesulfonamide or (1S,2S)-N-(4-((R)-cyclopropyl(3-methyl-1,2-oxazol-4-yl)methyl)-5-(6-methoxy-2-pyridinyl)-4H-1,2,4-triazol-3-yl)-1-(5-methyl-2-pyrimidinyl)-1-(2-propanyloxy)-2-propanesulfonamide], the EC50 came out at 0.5 nM.

On to `CC[C@@H](c1conc1C)n1c(NS(=O)(=O)[C@@H](C)[C@H](C)c2ncc(Cl)cn2)nnc1-c1cccc(OC)n1` (mixture of isomers) [Example 227.0, (2S,3R)-3-(5-chloro-2-pyrimidinyl)-N-(5-(6-methoxy-2-pyridinyl)-4-((1R)-1-(3-methyl-1,2-oxazol-4-yl)propyl)-4H-1,2,4-triazol-3-yl)-2-butanesulfonamide and (2S,3R)-3-(5-chloro-2-pyrimidinyl)-N-(5-(6-methoxy-2-pyridinyl)-4-((1S)-1-(3-methyl-1,2-oxazol-4-yl)propyl)-4H-1,2,4-triazol-3-yl)-2-butanesulfonamide], for which the EC50 stood at 4.5 nM.

As to `CO[C@H](c1ncc(Cl)cn1)[C@H](C)S(=O)(=O)Nc1nnc(-c2ccccn2)n1C1(C)CC1` [Example 97.0], the EC50 is 11 nM.

In the case of `COc1cccc(-c2nnc(NS(=O)(=O)[C@@H](C)[C@@H](OC(C)C)c3ncc(C)cn3)n2[C@@H](C)c2ncnn2C)n1` (single isomer, unassigned) [Example 253.0, (1S,2S)-N-(5-(6-methoxy-2-pyridinyl)-4-((1R)-1-(1-methyl-1H-1,2,4-triazol-5-yl)ethyl)-4H-1,2,4-triazol-3-yl)-1-(5-methyl-2-pyrimidinyl)-1-(2-propanyloxy)-2-propanesulfonamide or (1S,2S)-N-(5-(6-methoxy-2-pyridinyl)-4-((1S)-1-(1-methyl-1H-1,2,4-triazol-5-yl)ethyl)-4H-1,2,4-triazol-3-yl)-1-(5-methyl-2-pyrimidinyl)-1-(2-propanyloxy)-2-propanesulfonamide], the EC50 was found to be 32 nM.

Regarding `COc1cccc(-c2nnc(NS(=O)(=O)[C@@H](C)[C@H](OC)c3ncc(Cl)cn3)n2[C@H](C)c2cccnc2)n1` (single isomer, unassigned) [Example 351.0, (1R,2S)-1-(5-chloropyrimidin-2-yl)-1-methoxy-N-(5-(6-methoxypyridin-2-yl)-4-((R)-1-(pyridin-3-yl)ethyl)-4H-1,2,4-triazol-3-yl)propane-2-sulfonamide or (1R,2S)-1-(5-chloropyrimidin-2-yl)-1-methoxy-N-(5-(6-methoxypyridin-2-yl)-4-((S)-1-(pyridin-3-yl)ethyl)-4H-1,2,4-triazol-3-yl)propane-2-sulfonamide], the EC50 is 0.36 nM.

With `COc1cccc(-c2nnc(NS(=O)(=O)[C@@H](C)[C@H](OC)c3cnc(C)cn3)n2Cc2cnoc2)n1` [Example 188.0, (1R,2S)-N-(4-(isoxazol-4-ylmethyl)-5-(6-methoxypyridin-2-yl)-4H-1,2,4-triazol-3-yl)-1-methoxy-1-(5-methylpyrazin-2-yl)propane-2-sulfonamide], the EC50 worked out at 1400 nM.

As for `COCCn1c(NS(=O)(=O)[C@H](C)[C@@H](C)c2ncc(Cl)cn2)nnc1-c1cccnc1` (stereo in doubt) [Example 18.0, (2R,3S)-3-(5-chloro-2-pyrimidinyl)-N-(4-(2-methoxyethyl)-5-(3-pyridinyl)-4H-1,2,4-triazol-3-yl)-2-butanesulfonamide], the EC50 was 250 nM.

Take `COc1cccc(-c2nnc(NS(=O)(=O)[C@@H](C)[C@H](OC)c3ncc(Cl)cn3)n2CC[S@+](C)[O-])n1` (single isomer, unassigned) [Example 94.0]: the EC50 is 1000 nM.

Take `COc1cccc(-c2nnc(NS(=O)(=O)[C@@H](C)[C@H](OC)c3ncc(Cl)cn3)n2CC2CCOC2)n1` (single isomer, unassigned) [Example 285.0, (1R,2S)-1-(5-chloropyrimidin-2-yl)-1-methoxy-N-(5-(6-methoxypyridin-2-yl)-4-(((R)-tetrahydrofuran-3-yl)methyl)-4H-1,2,4-triazol-3-yl)propane-2-sulfonamide or (1R,2S)-1-(5-chloropyrimidin-2-yl)-1-methoxy-N-(5-(6-methoxypyridin-2-yl)-4-(((S)-tetrahydrofuran-3-yl)methyl)-4H-1,2,4-triazol-3-yl)propane-2-sulfonamide]: the EC50 came to 65 nM.
